Data reported in ChEMBL document CHEMBL3808348, “Rational Design, Synthesis, and Biological Evaluation of 7-Azaindole Derivatives as Potent Focused Multi-Targeted Kinase Inhibitors” (J Med Chem, 2016).

Tests used:
[1] = system: Tyrosine-protein kinase ABL1 (Homo sapiens), P00519 [Y253F]; assay: Inhibition of His-tagged full length human recombinant ABL Y253F mutant expressed in baculovirus using Fluorescein-Poly GT as substrate at 100 nM
[2] = target: Serine/threonine-protein kinase Chk2 (Homo sapiens) (UniProt O96017); settings: 100 nM
Description: Inhibition of His-tagged human recombinant CHK2 expressed in baculovirus using Fluorescein-CREBtide as substrate at 100 nM

[3] = target: Tyrosine-protein kinase receptor TYRO3 (Homo sapiens) (UniProt Q06418); settings: 100 nM
Description: Inhibition of GST-tagged human recombinant TYRO3 (451 to 890 residues) expressed in baculovirus using Fluorescein-Poly GT as substrate at 100 nM

[4] = target: Serine/threonine-protein kinase D2 (Homo sapiens) (UniProt Q9BZL6); settings: 100 nM
Description: Inhibition of GST-tagged full length human recombinant PKD2 expressed in baculovirus using Fluorescein-CREBtide as substrate at 100 nM

[5] = system: A549; assay: Antiproliferative activity against human A549 cells after 72 hrs by MTT assay; type: functional, cell-based; settings: A549, 72 h
[6] = target: Bcr/Abl fusion protein (Homo sapiens, UniProt P00519); type: cell-based, BaF3
Description: Inhibition of human wild type BCR-ABL expressed in mouse BAF3 cells assessed as inhibition of cell proliferation after 72 hrs by MTT assay

[7] = target: Hepatocyte growth factor receptor (Homo sapiens) (UniProt P08581); settings: 100 nM
Description: Inhibition of GST-tagged human recombinant cMET (956 to 1390 residues) expressed in baculovirus using Fluorescein-Poly GT as substrate at 100 nM

[8] = target: Tyrosine-protein kinase CSK (Homo sapiens) (UniProt P41240); settings: 100 nM
Description: Inhibition of His-tagged full length human recombinant CSK expressed in Escherichia coli using Fluorescein-Poly GT as substrate at 100 nM

[9] = target: Tyrosine-protein kinase SYK (Homo sapiens) (UniProt P43405); settings: 100 nM
Description: Inhibition of GST-tagged full length human recombinant SYK expressed in baculovirus using Fluorescein-Poly GT as substrate at 100 nM

[10] = target: Vascular endothelial growth factor receptor 1 (Homo sapiens) (UniProt P17948); settings: 100 nM
Description: Inhibition of GST-tagged human recombinant VEGFR1 (781 to 1338 residues) expressed in baculovirus using Fluorescein-Poly GT as substrate at 100 nM

[11] = target: Macrophage colony-stimulating factor 1 receptor (Homo sapiens) (UniProt P07333); settings: 100 nM
Description: Inhibition of His-tagged human recombinant CSF1R (538 to 910 residues) expressed in baculovirus using Fluorescein-Poly GT as substrate at 100 nM

[12] = target: Phosphatidylinositol 4,5-bisphosphate 3-kinase catalytic subunit alpha isoform (Homo sapiens) (UniProt P42336); settings: 100 nM
Description: Inhibition of PI3Kalpha (unknown origin) at 100 nM

[13] = target: Proto-oncogene tyrosine-protein kinase Src (Homo sapiens, UniProt P12931); assay: Inhibition of full length His-tagged human recombinant cSRC expressed in baculovirus using Fluorescein-Poly GT as substrate
[14] = target: Tyrosine-protein kinase Blk (Homo sapiens) (UniProt P51451); assay: Inhibition of His-tagged full length human recombinant BLK expressed in baculovirus using Fluorescein-Poly GT as substrate at 100 nM
[15] = target: Dual specificity mitogen-activated protein kinase kinase 1 (Homo sapiens) (UniProt Q02750); settings: 100 nM
Description: Inhibition of full length His-tagged human recombinant MEK1 expressed in baculovirus expression system at 100 nM

[16] = target: Receptor tyrosine-protein kinase erbB-4 (Homo sapiens) (UniProt Q15303); settings: 100 nM
Description: Inhibition of GST-tagged human recombinant ERBB4 (708 to 993 residues) expressed in baculovirus using Fluorescein-Poly GT as substrate at 100 nM

[17] = Oral bioavailability in Swiss mouse plasma at 20 mg/kg by LC/MS/MS analysis; type: ADME, organism-based
[18] = target: Calcium/calmodulin-dependent protein kinase type II subunit delta (Homo sapiens) (UniProt Q13557); settings: 100 nM
Description: Inhibition of full length His-tagged human recombinant CaMK2 delta expressed in baculovirus using Fluorescein-CREBtide as substrate at 100 nM

[19] = target: Phosphorylase b kinase gamma catalytic chain, liver/testis isoform (Homo sapiens) (UniProt P15735); settings: 100 nM
Description: Inhibition of human full length recombinant N-terminal GST-tagged PHKG2 expressed in baculovirus at 100 nM

[20] = target: NUAK family SNF1-like kinase 1 (Homo sapiens) (UniProt O60285); settings: 100 nM
Description: Inhibition of NUAK1 (unknown origin) at 100 nM

[21] = Cmax in Swiss mouse plasma at 2 mg/kg, iv by LC/MS/MS analysis; type: ADME, organism-based; set-up: dose 2 mg/kg, route intravenous
[22] = target: Receptor-type tyrosine-protein kinase FLT3 (Homo sapiens) (UniProt P36888); settings: 100 nM
Description: Inhibition of His-tagged human recombinant FLT3 (564 to 958 residues) expressed in baculovirus using Fluorescein-Poly GT as substrate at 100 nM

[23] = target: MAP kinase-activated protein kinase 2 (Homo sapiens) (UniProt P49137); settings: 100 nM
Description: Inhibition of His-tagged full length human recombinant MAPKAPK2 expressed in Escherichia coli using Fluorescein-CREBtide as substrate at 100 nM

[24] = target: Cytoplasmic tyrosine-protein kinase BMX (Homo sapiens) (UniProt P51813); assay: Inhibition of His-tagged full length human recombinant BMX expressed in baculovirus using Fluorescein-Poly GT as substrate at 100 nM
[25] = target: Serine/threonine-protein kinase pim-1 (Homo sapiens) (UniProt P11309); settings: 100 nM
Description: Inhibition of His-tagged full length human recombinant PIM1 expressed in baculovirus using Fluorescein-CREBtide as substrate at 100 nM

[26] = target: Myosin light chain kinase, smooth muscle (Homo sapiens) (UniProt Q15746); settings: 100 nM
Description: Inhibition of GST-tagged human recombinant MLCK (1428 to 1771 residues) expressed in baculovirus at 100 nM

[27] = target: Mast/stem cell growth factor receptor Kit (Homo sapiens) (UniProt P10721); settings: 100 nM
Description: Inhibition of His-tagged human recombinant cKIT expressed in baculovirus using Fluorescein-Poly GT as substrate at 100 nM

[28] = target: Tyrosine-protein kinase receptor UFO (Homo sapiens) (UniProt P30530); settings: 100 nM
Description: Inhibition of full length His-tagged human recombinant AXL expressed in insect expression system using Fluorescein-Poly GT as substrate at 100 nM

[29] = target: High affinity nerve growth factor receptor (Homo sapiens) (UniProt P04629); settings: 100 nM
Description: Inhibition of His-tagged human recombinant TRKA (441 to 796 residues) expressed in baculovirus using Fluorescein-Poly GT as substrate at 100 nM

[30] = target: Tyrosine-protein kinase Fgr (Homo sapiens) (UniProt P09769); assay: Inhibition of His-tagged full length human recombinant FGR expressed in baculovirus using Fluorescein-Poly GT as substrate at 100 nM
[31] = Antiproliferative activity against human BxPC3 cells after 72 hrs by MTT assay; type: functional, cell-based; settings: BXPC-3, 72 h
[32] = target: Protein kinase C epsilon type (Homo sapiens) (UniProt Q02156); settings: 100 nM
Description: Inhibition of full length human recombinant PKCepsilon expressed in baculovirus using Fluorescein-PKC as substrate at 100 nM

[33] = target: Ephrin type-A receptor 1 (Homo sapiens) (UniProt P21709); settings: 100 nM
Description: Inhibition of GST-tagged human recombinant EPHA1 (568 to 976 residues) expressed in baculovirus using Fluorescein-Poly GT as substrate at 100 nM

[34] = target: Testis-specific serine/threonine-protein kinase 2 (Homo sapiens) (UniProt Q96PF2); settings: 100 nM
Description: Inhibition of His-tagged full length human recombinant TSSK2 expressed in baculovirus at 100 nM

[35] = target: Vascular endothelial growth factor receptor 2 (Homo sapiens) (UniProt P35968); settings: 100 nM
Description: Inhibition of His-tagged human recombinant VEGFR2 (789 to 1356 residues) expressed in baculovirus using Fluorescein-Poly GT as substrate at 100 nM

[36] = system: Epidermal growth factor receptor (Homo sapiens), P00533 [T790M]; settings: 100 nM
[37] = target: Aurora kinase C (Homo sapiens) (UniProt Q9UQB9); settings: 100 nM
Description: Inhibition of full length His-tagged human recombinant Aurora C expressed in baculovirus using Fluorescein-CREBtide as substrate at 100 nM

[38] = target: Tyrosine-protein kinase Tec (Homo sapiens) (UniProt P42680); settings: 100 nM
Description: Inhibition of His-tagged full length human recombinant TEC expressed in baculovirus using Fluorescein-Poly GT as substrate at 100 nM

[39] = target: Bcr/Abl fusion protein (Homo sapiens, UniProt P00519, T315I); type: cell-based, BaF3
Description: Inhibition of human BCR-ABL T315I mutant expressed in mouse BAF3 cells assessed as inhibition of cell proliferation after 72 hrs by MTT assay

[40] = target: Insulin-like growth factor 1 receptor (Homo sapiens) (UniProt P08069); settings: 100 nM
Description: Inhibition of His-tagged human recombinant IGF1R (960 to 1397 residues) expressed in baculovirus using Fluorescein-Poly GT as substrate at 100 nM

[41] = target: Serine/threonine-protein kinase PLK1 (Homo sapiens) (UniProt P53350); settings: 100 nM
Description: Inhibition of His-tagged full length human recombinant PLK1 expressed in baculovirus using at 100 nM

[42] = target: Tyrosine-protein kinase Yes (Homo sapiens, UniProt P07947); assay: Inhibition of GST-tagged full length human recombinant YES expressed in baculovirus using Fluorescein-Poly GT as substrate
[43] = target: Ephrin type-B receptor 4 (Homo sapiens) (UniProt P54760); settings: 100 nM
Description: Inhibition of His-tagged human recombinant EPHB4 (561 to 987 residues) expressed in baculovirus using Fluorescein-Poly GT as substrate at 100 nM

[44] = target: Rho-associated protein kinase 2 (Homo sapiens) (UniProt O75116); settings: 100 nM
Rho-associated protein kinase 2 (Homo sapiens), sequence (O75116 whole entry, looked up): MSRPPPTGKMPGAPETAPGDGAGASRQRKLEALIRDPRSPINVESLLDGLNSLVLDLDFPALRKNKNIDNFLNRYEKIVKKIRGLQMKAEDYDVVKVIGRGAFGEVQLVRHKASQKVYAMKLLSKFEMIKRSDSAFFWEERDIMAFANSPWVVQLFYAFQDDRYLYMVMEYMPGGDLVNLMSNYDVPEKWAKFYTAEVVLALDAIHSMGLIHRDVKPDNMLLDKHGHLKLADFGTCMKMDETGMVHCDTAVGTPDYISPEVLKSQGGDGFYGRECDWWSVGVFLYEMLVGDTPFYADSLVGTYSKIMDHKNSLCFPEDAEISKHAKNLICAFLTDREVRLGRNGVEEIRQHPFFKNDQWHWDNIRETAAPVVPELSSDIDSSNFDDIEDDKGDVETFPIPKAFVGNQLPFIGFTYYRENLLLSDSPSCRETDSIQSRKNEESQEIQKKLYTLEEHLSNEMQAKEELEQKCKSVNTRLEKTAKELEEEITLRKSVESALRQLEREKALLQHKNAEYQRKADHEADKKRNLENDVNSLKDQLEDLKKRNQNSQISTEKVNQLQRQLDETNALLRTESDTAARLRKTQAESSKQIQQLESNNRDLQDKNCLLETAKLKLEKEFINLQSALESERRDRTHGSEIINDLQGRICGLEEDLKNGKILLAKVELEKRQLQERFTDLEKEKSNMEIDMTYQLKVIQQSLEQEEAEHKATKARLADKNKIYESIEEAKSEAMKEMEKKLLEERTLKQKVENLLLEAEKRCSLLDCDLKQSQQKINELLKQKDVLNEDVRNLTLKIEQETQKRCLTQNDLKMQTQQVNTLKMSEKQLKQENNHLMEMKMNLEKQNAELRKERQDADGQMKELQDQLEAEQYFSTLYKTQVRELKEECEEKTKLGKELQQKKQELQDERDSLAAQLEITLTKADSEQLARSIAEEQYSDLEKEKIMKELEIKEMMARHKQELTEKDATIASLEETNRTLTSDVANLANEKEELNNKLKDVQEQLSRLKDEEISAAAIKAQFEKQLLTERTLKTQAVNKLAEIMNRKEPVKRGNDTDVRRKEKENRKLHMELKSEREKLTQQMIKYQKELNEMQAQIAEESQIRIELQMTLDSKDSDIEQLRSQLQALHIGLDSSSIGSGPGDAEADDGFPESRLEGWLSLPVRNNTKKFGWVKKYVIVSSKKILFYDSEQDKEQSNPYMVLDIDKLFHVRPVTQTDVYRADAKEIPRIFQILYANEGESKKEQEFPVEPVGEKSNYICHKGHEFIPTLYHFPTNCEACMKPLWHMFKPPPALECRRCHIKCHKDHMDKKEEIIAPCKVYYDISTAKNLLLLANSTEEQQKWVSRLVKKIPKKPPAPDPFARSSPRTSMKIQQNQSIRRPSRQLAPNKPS
Description: Inhibition of GST-tagged human recombinant ROCK2 ( 1 to 552 residues) expressed in baculovirus using Fluorescein-PKC as substrate at 100 nM

Tyrosine-protein kinase CSK (Homo sapiens), sequence (P41240 2-450 limits assumed): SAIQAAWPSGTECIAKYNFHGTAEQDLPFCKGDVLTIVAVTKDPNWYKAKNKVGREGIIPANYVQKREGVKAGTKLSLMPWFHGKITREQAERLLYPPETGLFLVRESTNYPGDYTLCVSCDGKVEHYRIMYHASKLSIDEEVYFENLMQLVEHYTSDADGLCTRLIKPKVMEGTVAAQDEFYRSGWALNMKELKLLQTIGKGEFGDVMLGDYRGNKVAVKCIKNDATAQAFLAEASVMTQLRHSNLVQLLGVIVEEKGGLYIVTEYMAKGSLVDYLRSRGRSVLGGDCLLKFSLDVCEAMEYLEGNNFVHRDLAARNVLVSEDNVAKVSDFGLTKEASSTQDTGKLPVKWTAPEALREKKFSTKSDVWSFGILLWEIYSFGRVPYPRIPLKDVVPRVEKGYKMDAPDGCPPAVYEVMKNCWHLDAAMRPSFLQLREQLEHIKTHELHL
Serine/threonine-protein kinase PLK1 (Homo sapiens), sequence (P53350 whole entry): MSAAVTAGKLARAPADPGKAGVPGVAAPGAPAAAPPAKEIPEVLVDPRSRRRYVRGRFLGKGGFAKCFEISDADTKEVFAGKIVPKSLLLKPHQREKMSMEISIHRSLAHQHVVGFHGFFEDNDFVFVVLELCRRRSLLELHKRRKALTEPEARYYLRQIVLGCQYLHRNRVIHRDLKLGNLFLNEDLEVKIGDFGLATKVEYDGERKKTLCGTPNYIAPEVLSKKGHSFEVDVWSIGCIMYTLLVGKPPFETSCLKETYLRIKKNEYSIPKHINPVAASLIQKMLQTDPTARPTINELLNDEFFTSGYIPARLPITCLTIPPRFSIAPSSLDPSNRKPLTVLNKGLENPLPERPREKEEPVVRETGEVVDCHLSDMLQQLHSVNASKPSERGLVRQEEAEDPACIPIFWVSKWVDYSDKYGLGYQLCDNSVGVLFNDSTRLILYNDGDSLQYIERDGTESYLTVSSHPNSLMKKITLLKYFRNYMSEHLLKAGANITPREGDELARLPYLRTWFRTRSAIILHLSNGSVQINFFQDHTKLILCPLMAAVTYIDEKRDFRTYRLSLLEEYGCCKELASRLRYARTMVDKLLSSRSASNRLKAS
Receptor tyrosine-protein kinase erbB-4 (Homo sapiens), sequence (Q15303 whole entry): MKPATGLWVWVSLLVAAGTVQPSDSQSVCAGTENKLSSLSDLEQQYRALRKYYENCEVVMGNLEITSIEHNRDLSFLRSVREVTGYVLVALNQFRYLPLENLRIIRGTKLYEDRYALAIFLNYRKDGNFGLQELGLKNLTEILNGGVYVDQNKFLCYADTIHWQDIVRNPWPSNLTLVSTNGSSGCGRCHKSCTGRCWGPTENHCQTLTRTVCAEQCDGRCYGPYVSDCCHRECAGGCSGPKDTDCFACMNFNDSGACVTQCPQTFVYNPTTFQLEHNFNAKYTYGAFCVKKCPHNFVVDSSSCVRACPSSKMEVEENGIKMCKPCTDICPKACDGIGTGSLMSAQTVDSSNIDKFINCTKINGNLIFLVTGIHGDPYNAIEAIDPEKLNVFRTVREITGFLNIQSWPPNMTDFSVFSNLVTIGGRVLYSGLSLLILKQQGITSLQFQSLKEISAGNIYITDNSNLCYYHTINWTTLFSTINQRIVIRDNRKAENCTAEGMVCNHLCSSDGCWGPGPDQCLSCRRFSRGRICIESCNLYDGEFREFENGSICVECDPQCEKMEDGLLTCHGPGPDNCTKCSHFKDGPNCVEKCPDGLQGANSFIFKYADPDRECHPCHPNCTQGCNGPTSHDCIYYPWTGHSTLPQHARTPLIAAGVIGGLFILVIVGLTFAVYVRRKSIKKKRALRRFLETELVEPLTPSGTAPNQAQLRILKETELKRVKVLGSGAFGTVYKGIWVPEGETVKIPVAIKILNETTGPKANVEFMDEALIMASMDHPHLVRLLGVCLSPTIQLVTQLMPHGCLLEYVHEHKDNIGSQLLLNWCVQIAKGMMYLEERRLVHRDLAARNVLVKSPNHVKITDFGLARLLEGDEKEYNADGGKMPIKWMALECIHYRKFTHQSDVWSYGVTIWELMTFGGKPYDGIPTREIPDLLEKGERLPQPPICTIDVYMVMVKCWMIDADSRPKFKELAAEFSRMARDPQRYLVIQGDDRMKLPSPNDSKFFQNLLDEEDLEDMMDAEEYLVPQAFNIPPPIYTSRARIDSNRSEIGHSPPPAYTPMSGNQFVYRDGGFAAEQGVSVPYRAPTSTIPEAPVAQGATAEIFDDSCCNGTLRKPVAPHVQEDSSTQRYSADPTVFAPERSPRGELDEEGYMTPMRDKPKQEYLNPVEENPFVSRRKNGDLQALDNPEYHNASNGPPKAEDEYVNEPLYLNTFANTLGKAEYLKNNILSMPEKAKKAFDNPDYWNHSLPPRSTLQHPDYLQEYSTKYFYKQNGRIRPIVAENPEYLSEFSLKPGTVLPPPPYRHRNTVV
Phosphatidylinositol 4,5-bisphosphate 3-kinase catalytic subunit alpha isoform (Homo sapiens), sequence (P42336 whole entry, canonical isoform): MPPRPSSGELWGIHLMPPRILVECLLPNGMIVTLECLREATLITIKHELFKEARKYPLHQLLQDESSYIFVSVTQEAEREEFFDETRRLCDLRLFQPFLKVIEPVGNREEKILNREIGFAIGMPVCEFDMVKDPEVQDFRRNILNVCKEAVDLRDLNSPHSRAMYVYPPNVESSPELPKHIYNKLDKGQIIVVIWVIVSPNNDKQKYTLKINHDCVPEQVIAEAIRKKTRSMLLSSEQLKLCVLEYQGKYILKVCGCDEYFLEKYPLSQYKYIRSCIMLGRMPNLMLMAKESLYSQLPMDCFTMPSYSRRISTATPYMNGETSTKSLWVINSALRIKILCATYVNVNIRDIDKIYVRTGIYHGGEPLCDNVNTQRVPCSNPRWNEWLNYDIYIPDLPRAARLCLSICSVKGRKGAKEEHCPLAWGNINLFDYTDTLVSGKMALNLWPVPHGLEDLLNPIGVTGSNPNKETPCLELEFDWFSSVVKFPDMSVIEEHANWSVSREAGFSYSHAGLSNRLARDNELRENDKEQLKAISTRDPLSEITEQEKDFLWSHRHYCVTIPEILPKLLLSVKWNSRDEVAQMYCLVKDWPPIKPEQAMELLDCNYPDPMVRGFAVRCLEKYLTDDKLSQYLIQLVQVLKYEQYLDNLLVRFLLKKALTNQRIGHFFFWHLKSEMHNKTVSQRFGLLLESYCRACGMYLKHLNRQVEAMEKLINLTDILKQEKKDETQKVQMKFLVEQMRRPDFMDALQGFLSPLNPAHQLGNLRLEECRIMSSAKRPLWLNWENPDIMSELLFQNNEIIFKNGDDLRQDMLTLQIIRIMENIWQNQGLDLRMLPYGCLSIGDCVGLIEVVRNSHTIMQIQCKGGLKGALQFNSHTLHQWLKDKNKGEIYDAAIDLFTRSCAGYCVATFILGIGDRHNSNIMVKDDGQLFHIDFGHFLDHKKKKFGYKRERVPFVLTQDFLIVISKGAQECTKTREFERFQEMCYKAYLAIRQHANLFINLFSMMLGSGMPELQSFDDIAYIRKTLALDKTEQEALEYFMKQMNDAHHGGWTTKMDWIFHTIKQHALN

COC(=O)c1cc2cc(NCc3cc(NC(=O)c4cc(-n5cnc(C)c5)cc(C(F)(F)F)c4)ccc3C)cnc2[nH]1
> 80%: inhibition [1] | inhibition [14] | inhibition [24] | inhibition [30]
1.8 nM: EC50 [39]
64 nM: EC50 [5]
35 nM: EC50 [31]
0.04 nM: EC50 [6]
40 nM: IC50 [13]
44 nM: IC50 [42]
< 40%: inhibition [2] | inhibition [3] | inhibition [4] | inhibition [7] | inhibition [8] | inhibition [9] | inhibition [10] | inhibition [11] | inhibition [12] | inhibition [15] | inhibition [16] | inhibition [18] | inhibition [19] | inhibition [20] | inhibition [22] | inhibition [23] | inhibition [25] | inhibition [26] | inhibition [27] | inhibition [28] | inhibition [29] | inhibition [32] | inhibition [33] | inhibition [34] | inhibition [35] | inhibition [36] | inhibition [37] | inhibition [38] | inhibition [40] | inhibition [41] | inhibition [43] | inhibition [44]
47%: bioavailability [17]
853 ng/mL: Cmax [21]
